Results taken from ChEMBL document CHEMBL4130404, “Lamellodysidines A and B, Sesquiterpenes Isolated from the Marine Sponge Lamellodysidea herbacea” (J Nat Prod, 2017).
Calls of active or inactive are those of the source.

Experiments:
[1] = tested on: Macrophage; experiment: Inhibition of cholesterol ester accumulation in macrophages (unknown origin); format: functional, cell-based
[2] = tested on: Macrophage; experiment: Inhibition of RANKL-induced formation of multinuclear osteoclasts in macrophages (unknown origin); format: functional, cell-based
[3] = organism: Homo sapiens; experiment: Inhibition of ubiquitin/proteasome (unknown origin)
[4] = molecular target: T1, Ubiquitin-like modifier-activating enzyme 1 (Homo sapiens) (UniProt P22314); experiment: Inhibition of ubiquitin/ubiquitin-activating enzyme E1 (unknown origin)
T1 sequence (whole entry): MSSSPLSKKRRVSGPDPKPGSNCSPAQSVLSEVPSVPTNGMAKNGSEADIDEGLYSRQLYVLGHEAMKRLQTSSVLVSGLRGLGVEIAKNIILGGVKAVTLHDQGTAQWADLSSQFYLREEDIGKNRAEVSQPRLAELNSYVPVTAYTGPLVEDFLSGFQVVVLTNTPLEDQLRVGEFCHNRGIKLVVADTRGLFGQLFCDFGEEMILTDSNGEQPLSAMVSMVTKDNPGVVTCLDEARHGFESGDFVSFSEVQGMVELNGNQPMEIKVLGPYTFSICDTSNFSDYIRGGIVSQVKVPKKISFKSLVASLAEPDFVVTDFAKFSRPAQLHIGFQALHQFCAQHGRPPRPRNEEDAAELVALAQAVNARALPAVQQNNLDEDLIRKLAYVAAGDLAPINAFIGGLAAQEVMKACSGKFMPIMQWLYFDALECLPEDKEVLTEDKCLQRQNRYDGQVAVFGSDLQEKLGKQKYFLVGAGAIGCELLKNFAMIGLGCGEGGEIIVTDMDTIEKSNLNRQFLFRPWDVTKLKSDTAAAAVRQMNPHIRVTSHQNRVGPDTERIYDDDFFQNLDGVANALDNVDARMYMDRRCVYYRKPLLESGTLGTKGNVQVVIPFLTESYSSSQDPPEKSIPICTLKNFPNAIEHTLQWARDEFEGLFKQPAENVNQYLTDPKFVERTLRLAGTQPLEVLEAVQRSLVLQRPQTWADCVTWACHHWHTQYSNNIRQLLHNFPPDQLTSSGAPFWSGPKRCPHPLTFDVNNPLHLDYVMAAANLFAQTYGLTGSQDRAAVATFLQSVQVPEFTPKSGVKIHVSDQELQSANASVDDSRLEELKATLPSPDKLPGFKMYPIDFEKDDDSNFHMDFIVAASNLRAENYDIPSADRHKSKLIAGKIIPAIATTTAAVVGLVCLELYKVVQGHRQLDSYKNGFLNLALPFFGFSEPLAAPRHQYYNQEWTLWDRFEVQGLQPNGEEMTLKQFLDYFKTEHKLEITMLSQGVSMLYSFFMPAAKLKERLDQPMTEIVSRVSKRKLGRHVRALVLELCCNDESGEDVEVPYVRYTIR

[5] = organism: Homo sapiens; experiment: Inhibition of ubiquitin/Ubc13/Uev1A (unknown origin)
[6] = molecular target: Tumour suppressor p53/oncoprotein Mdm2 (Homo sapiens) (UniProt P04637+Q00987); experiment: Inhibition of ubiquitin/p53/Mdm2 (unknown origin); format: protein assay
Tumour suppressor p53/oncoprotein Mdm2 (Homo sapiens), sequence (P04637 whole entry, looked up): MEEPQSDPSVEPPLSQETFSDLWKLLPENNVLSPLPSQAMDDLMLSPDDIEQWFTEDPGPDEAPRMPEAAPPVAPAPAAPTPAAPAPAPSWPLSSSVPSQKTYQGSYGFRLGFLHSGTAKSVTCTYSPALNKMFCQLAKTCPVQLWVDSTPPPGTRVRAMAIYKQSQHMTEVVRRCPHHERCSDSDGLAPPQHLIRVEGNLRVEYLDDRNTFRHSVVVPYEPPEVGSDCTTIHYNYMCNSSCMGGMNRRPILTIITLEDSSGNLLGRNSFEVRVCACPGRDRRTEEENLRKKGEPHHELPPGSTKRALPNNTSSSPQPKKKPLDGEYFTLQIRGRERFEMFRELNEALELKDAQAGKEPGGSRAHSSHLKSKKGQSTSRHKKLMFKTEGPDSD
Tumour suppressor p53/oncoprotein Mdm2 (Homo sapiens), sequence (Q00987 whole entry, looked up): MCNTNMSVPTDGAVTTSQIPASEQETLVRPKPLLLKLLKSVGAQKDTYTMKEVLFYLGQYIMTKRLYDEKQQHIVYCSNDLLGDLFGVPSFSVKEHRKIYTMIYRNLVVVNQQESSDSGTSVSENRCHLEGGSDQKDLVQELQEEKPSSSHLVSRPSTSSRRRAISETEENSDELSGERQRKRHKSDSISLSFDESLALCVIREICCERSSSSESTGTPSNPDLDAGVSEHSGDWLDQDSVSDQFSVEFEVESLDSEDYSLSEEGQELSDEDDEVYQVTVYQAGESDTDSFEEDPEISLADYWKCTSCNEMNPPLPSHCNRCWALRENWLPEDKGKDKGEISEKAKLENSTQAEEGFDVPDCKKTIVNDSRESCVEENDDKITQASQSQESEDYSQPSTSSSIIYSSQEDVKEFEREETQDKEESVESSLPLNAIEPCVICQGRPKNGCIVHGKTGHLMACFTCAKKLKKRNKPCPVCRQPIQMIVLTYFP

[7] = molecular target: Ubiquitin carboxyl-terminal hydrolase 7 (Homo sapiens) (UniProt Q93009); experiment: Inhibition of ubiquitin/USP7 (unknown origin)
Ubiquitin carboxyl-terminal hydrolase 7 (Homo sapiens), sequence (Q93009 whole entry, looked up): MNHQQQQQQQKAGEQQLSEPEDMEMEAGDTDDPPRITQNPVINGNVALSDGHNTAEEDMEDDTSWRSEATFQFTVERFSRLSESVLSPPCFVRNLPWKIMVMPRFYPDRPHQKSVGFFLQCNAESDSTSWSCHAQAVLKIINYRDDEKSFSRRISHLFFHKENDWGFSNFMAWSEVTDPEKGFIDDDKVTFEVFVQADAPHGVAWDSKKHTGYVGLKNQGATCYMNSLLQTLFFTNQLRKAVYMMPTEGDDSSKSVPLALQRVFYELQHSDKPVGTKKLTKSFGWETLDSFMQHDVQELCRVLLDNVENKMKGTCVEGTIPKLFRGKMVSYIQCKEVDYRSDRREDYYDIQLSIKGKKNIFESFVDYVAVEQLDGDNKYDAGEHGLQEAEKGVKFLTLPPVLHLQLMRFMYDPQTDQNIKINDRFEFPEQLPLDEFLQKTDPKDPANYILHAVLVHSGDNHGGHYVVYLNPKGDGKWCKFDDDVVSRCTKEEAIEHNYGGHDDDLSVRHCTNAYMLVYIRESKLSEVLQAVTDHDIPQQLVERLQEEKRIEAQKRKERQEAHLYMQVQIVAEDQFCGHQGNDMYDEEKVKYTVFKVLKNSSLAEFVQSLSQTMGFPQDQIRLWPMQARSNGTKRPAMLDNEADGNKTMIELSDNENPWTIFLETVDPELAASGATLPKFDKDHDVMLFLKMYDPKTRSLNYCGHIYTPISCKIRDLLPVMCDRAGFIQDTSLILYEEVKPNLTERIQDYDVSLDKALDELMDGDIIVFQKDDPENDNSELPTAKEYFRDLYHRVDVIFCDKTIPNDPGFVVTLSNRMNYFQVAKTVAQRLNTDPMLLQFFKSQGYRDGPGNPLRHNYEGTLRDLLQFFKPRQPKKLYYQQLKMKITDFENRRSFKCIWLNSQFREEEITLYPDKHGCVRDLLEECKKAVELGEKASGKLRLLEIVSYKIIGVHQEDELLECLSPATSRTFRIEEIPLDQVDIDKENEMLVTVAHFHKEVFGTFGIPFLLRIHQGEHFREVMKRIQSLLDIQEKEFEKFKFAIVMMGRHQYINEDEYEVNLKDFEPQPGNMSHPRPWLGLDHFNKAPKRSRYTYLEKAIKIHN

Measured: inhibition

CC1C2C=CC3(C)C1(C)CCC31C(=O)O[C@H](O)[C@@H]21 (some centres not stated)
inactive: [1] | [2] | [3] | [4] | [5] | [6] | [7]
